Data on 2 molecules can be found in article PMC3011871, “Purification and Biochemical Characterization of a Specific β-Glucosidase from the Digestive Fluid of Larvae of the Palm Weevil, Rhynchophorus palmarum” (Journal of Insect Science, 2009).

Structures are written as SMILES.

The subject of assay [1] is T1, β-glucosidase from the digestive fluid of Rhynchophorus palmarum larvae.
T1 construct: gene cellobiase; native, purified from larval digestive fluid (Abidjan, Côte d'Ivoire); monomer, 58 kDa SDS-PAGE, 60 kDa gel filtration
Nature of the assay: glucose release by glucose oxidase-peroxidase, Lineweaver-Burk. The class given is biochemical. The note with it: 100 mM acetate buffer pH 5.0, 37°C. An excerpt: glucose release by glucose oxidase-peroxidase, Lineweaver-Burk on β-glucosidase from the digestive fluid of Rhynchophorus palmarum larvae

Assay [2] has the same test system. In words: p-nitrophenol release at […] nm, Lineweaver-Burk. Format: biochemical. The note with it: 100 mM acetate buffer pH 5.0, 37°C.

For `OC[C@H]1O[C@@H](O[C@H]2[C@H](O)[C@@H](O)C(O)O[C@@H]2CO)[C@H](O)[C@@H](O)[C@@H]1O` (some centres unmarked) [cellobiose], the Km in assay [1] was found to be 310 µM. Regarding `O=[N+]([O-])c1ccc(O[C@@H]2O[C@H](CO)[C@@H](O)[C@H](O)[C@H]2O)cc1` [p-nitrophenyl-β-D-glucopyranoside], the Michaelis-Menten constant (Km) in assay [2] is 250 µM.
